# Measured values: patent US20130266663A1, “SOX9 INHIBITORS” (priority 2010, published 2013)
# Assays:
# Collagen IV = experiment: Western blotting of astrocyte culture protein extract probed with anti-collagen IV; type: cell-based, rat; conditions: 20 uM
# SOX9 target genes [1] = experiment: Short-term SOX9 target gene expression (Q-PCR) in injured cord after SCI; type: in vivo; conditions: rat SCI, 2 mg/kg ip 2 hours after injury, sacrificed twelve hours later
# Experimental: To validate the impact of the compounds on relevant conditions in rodents, a short-term experiment was performed to see whether chlorpromazine might reduce SOX9 target gene expression in vivo. […] Twelve hours later the rats were sacrificed and RNA was isolated from a 5 mm segment of their injured cords centered on the lesion. […] Specifically, the decrease in the expression of GFAP indicates a lower level of astrocyte activation.
# Twelve hours later the rats were sacrificed and RNA was isolated from a 5 mm segment of their injured cords centered on the lesion.
# [2] = test system: rats subject to spinal cord injury; experiment: Behavioral testing (BBB scale) after spinal cord injury; type: in vivo; conditions: rat SCI, 0.35 mg/ml and 3.5 mg/ml for 7 days via intrathecal miniosmotic pump; saline controls no improvement
# Experimental: As examples of the general utility of chemical compounds for general CNS damage and repair, chlorpromazine was assessed in rodent models of spinal cord injury and stroke (MCAO). […] Briefly, rats were subject to spinal cord injury as described and administered chlropromzaine at 0.35 mg/ml and 3.5 mg/ml for 7 days via the intrathecal miniosmotic pump. At 7 days, 4 rats were assessed for behavioral recovery, prior to being sacrificed for gene expression analyses as described above.
# In these studies rats (n=16 per group) will receive the SOX9 inhibitor for 6 weeks at which time half of the animals will be processed for SOX9 target gene expression by Q-PCR (as described above) and half will be processed for immunohistochemistry. […] Locomotor recovery, chronic pain syndromes and autonomic function will be assessed in treated and control mice. Motor function will be evaluated once per week using the Basso, Beattie and Bresnahan (BBB) scale for scoring hind limb function (Basso 1995). The presence of mechanical allodynia (a pain syndrome in which innocuous stimuli are perceived as painful) will be assessed once a week by stimulating the backs of the mice with a modified 1.569 mN Semmes Weinstein monofilament at, and rostral, to the level of the injury. […] Finally autonomic function will be assessed by measuring the degree of autonomic dysreflexia in animals before being sacrificed. […]
# SOX9 target genes [3] = experiment: Real-time PCR of SOX9 target genes after SCI, chlorpromazine i.p. once a day for 7 days; type: in vivo, rat
# Experimental: In the context of rodent studies, administration of chlorpromazine was assessed using delivery by intraperitoneal injection (as described in Example 3) and intrathecal miniosmotic pump (as described in Example 5). In summary, three doses of chlorpromazine were given i.p. (2 mg/kg, 4 mg/kg and 6 mg/kg) once a day for 7 days. The rats were then sacrificed and realtime pCR analysis of SOX9, GFAP. XT1, link protein, collagen 2A, aggrecan and brevican was conducted on a spinal cord sample normalizing to 18S.
# [4] = rat SCI, i.p. 2, 4 and 6 mg/kg once a day for 7 days, normalized to 18S
compound,measurement,setting,value
CN(C)CCCN1c2ccccc2Sc2ccc(Cl)cc21 [chlorpromazine],level of collagen IV (Western blot),Collagen IV,reduced level of collagen
same,CSPG Aggrecan expression,SOX9 target genes [1],significant decrease
same,Type II collagen expression,SOX9 target genes [1],reduced
same,Type IV collagen expression,SOX9 target genes [1],reduced
same,expression of GFAP,SOX9 target genes [1],decrease
same,expression of scar generating factors,SOX9 target genes [1],decreased expression
same,locomoter function score (BBB scale),[2],non-zero scores
same,impact on target gene expression,"SOX9 target genes [3]; at 2 and 4 mg/kg administration, i.p., 7 days",apparent impact on target gene expression
same,expression of Aggrecan,SOX9 target genes [3]; [4],reduces the expression
same,expression of Brevican,SOX9 target genes [3]; [4],reduces the expression
same,expression of GFAP,SOX9 target genes [3]; [4],reduces the expression
same,expression of HAPLN1,SOX9 target genes [3]; [4],reduces the expression
same,expression of SOX9,SOX9 target genes [3]; [4],reduces the expression
same,expression of XT-1,SOX9 target genes [3]; [4],reduces the expression
same,expression of type 2A Collagen,SOX9 target genes [3]; [4],reduces the expression
